Assay: CaOx aggregation inhibition (aggregation coefficient of seed COM crystals)
Conditions: 200 μL sample added to 2 mL seed COM suspension, 37° C., 10 min; embodiment 100% concentration; BSA 1 mg/mL; citric acid positive control
Experimental: In the following in-vitro trials, all “%” marks represented percentages by weight. An embodiment of “100%” concentration was prepared by mixing 60 mL of a beverage concentrate of an exemplary composition (see Table 1 above) with 440 mL of distilled water, equivalent to a ratio of 0.136 parts of the exemplary composition to one part of water. An embodiment of a concentration lower than 100% was prepared by further diluting said embodiment of 100% concentration with distilled water by a conventionally known dilution means that is appropriate for food and beverages. All the mixtures concerned were conventionally mixed to achieve effective uniformity for food and beverages.
Seed calcium oxalate monohydrate (COM) crystals were prepared and diluted to 50 mg/mL in 0.05 M Tris/0.15 NaCl, pH 6.5. An embodiment having the 100% concentration, or bovine serum albumin (BSA) or distilled water (blank) (200 μL) was added to the freshly prepared working seed COM suspension (2 mL). After mixing, absorbance at 620 nm was measured as baseline (AT0). After incubating at 37° C. for 10 min. absorbance was measured again (AT10). The aggregation coefficient (AC) was calculated from: AC=((AT0−AT10)/10)×1,000. Higher AC value indicates higher COM aggregation.

| Compound | aggregation of seed COM crystals |
| --- | --- |
| bovine serum albumin [BSA] | did not |
| O=C(O)CC(O)(CC(=O)O)C(=O)O [Citric acid] | strongly inhibited |
